# Experimental data published in patent US5958947A, “DNA-affinic hypoxia selective cytotoxins” (priority 1996, dated 1999).
# Values joined by “and” are separate entries in the source; they are usually repeats but may differ in a detail not shown here. Equal entries are not always repeated. Where two headings read alike, the source gives them in different places.
# Columns and labels:
# [1] = Acute aerobic and hypoxic cytotoxicity (colony formation); type: cell-based, Chinese hamster; conditions: chinese hamster, aerobic v79 cells, V79 cells, aerobic, 1 hour, 37° C.; 50% inhibition of clonogenicity
# Protocol: (§1) Samples of V79 Chinese hamster lung cells used in the following experiments were prepared as follows. V79 cells, exponentially growing as monolayer cultures in RPMI 1640 medium (Mediatech) supplemented with 10% fetal calf serum, were trypsinized, centrifuged for 5 min, harvested, then suspended in 25 ml Erlenmeyer flasks fitted with rubber caps at 5×10^5 cells/ml (5 ml). Individual flasks either were shaken (100 rpm) at 37° C. under aerobic conditions or made hypoxic by gassing with a 95% N2 (nitrogen)/5% CO2 (carbon dioxide) humidified gas mixture for 1 hour.
# (§2) To determine the fraction of surviving cells, samples were removed, diluted and plated to provide 2×10^2 to 2×10^4 cells/well on 60 mm Linbro multi-well plates (Flow Laboratories, McLean, Virginia). The plates were incubated at 37° C. for 6 days, stained with crystal violet and examined for colony formation. Colonies of 50 cells or greater were counted. Each plotted point in FIGS. 1 and 2 represent the mean of three or four replicate experiments.
# [2] = test system: V79 Chinese hamster lung cells; assay: as above; type: cell-based
# Protocol: as §1, §2
# [3] = test system: V79 Chinese hamster lung cells; assay: Radiosensitization of V79 cells; type: cell-based; conditions: for EC (SER 1.6): Cricetulus griseus
# Protocol: as §1
# Radiosensitization studies were performed on V79 cells in a manner similar to the acute toxicity experiments, except that the survival fraction was determined after a predetermined radiation dose. […] One Gy is equal to 100 rads, wherein one rad is the quantity of ionizing radiation that results in the absorption of 100 ergs of energy per gram of irradiated material. Hypoxia was maintained throughout irradiation. […] Sensitization enhancement ratios (SER) were determined at a 10% survival level. […] The plotted points in FIGS. 3 and 4 represent the mean of 2 or 3 replicate experiments.
# V79 cells [4] = assay: Isoeffective to the oxygen dose (IsD); type: cell-based, Chinese hamster; conditions: Cricetulus griseus, V79, 1 h, 7.5 Gy, 1 hour at 37° C.; read-out: Isoeffective to the oxygen dose at 7.5 Gy: IsD(7.5)
# Excerpt: The survival fraction under hypoxic conditions (plotted versus compound concentration) meets the aerobic survival fraction (radiation toxicity) at the IsD. The IsD value is a useful indicator of the overall potency of a compound as a sensitizer and cytotoxin of hypoxic cells. IsD is especially useful when comparing different compounds for hypoxic cytotoxicity and radiosensitizing efficacy.
# FIGS. 5 and 6 illustrate the IsD at 7.5 Gy (FIG. 5A) and 20 Gy (FIG. 5B). FIGS. 5A and 6A include a comparison to the prior art NLA-1 compound. V79 cells were irradiated at 7.5 Gy or 20 Gy after a 1 hour exposure under hypoxia (symbols) or air (straight line), at various drug concentrations. No toxicity or radiosensitization for any tested compound was observed under aerobic conditions over the tested concentration ranges. IsD values were calculated from the intersections of the survival fractions of the hypoxic curves with the survival fraction in air. All data points in FIGS. 5 and 6 represent the mean of two replicate experiments.
# [5] = Partition coefficient in octanol/water; type: physicochemical
# Protocol: The partition coefficient of the hypoxia selective cytotoxins of the present invention were determined by the method of T. Fujita et al., J. Am. Chem. Soc., 86, 5175-5180 (1964), incorporated herein by reference.
# V79 cells [6] = assay: Drug uptake in the presence of ammonium chloride; type: cell-based, Chinese hamster; conditions: aerobic V79 cells, 60 μM input, 50 mM NH4Cl (stated for THNLA-1)
# Protocol: Uptake measurements in the presence of the lysosomotropic agent ammonium chloride (NH4 Cl) also were performed in a manner as previously described.
# Concentrations were determined by UV spectrophotometry at 330 nm. The plotted points represent the mean of two experiments.
# calf thymus Topo I = target: T1, calf thymus Topo I (Bos taurus, UniProt F1MN93); assay: Topoisomerase I interaction (relaxation of supercoiled DNA); type: biochemical
# T1 construct: purchased TopoGEN, Inc., Columbus, Ohio; host or cells: calf thymus
# T1 sequence (F1MN93 1-767): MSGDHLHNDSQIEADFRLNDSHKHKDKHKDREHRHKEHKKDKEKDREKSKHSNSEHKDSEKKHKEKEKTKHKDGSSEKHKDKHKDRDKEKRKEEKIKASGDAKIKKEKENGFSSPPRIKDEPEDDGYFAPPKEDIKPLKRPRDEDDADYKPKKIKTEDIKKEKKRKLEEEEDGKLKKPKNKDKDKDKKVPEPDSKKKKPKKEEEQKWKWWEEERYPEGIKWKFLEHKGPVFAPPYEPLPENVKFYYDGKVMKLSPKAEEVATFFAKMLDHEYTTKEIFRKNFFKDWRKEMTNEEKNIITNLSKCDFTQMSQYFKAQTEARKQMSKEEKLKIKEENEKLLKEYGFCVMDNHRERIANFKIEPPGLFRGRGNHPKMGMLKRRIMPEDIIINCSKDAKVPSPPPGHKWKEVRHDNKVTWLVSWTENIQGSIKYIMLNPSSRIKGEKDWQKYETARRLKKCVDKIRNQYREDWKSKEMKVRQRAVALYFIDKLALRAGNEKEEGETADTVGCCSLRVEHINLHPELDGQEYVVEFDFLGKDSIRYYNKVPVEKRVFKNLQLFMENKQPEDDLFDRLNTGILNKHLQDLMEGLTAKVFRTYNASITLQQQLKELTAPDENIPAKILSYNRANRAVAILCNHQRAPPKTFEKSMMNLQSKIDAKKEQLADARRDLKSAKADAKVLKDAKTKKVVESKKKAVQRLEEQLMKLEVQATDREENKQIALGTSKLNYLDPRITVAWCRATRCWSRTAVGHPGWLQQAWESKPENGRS
# Protocol: In particular, a Topo I drug screening kit (TopoGEN, Inc., Columbus, Ohio) was used to assay the topoisomerase I THNLA-1 interaction. […] Camptothecin is a Topoisomerase I poison used as an anticancer drug. Camptothecin stabilizes the Topo I-DNA cleavable complex, and therefore prevents the resealing of DNA by Topo-I.
# Individual reaction mixtures were heated for 30 minutes at 37° C. on a heating block, and then 2 μl of 10% SDS - proteinase K solution was added to each reaction mixture. The resulting reaction mixtures then were heated for an additional 30 minutes at 37° C. The reaction mixtures in a loading buffer were extracted with CHCl3 prior to submarine electrophoresis on a 1% agarose gel. The DNA bands were observed visually by staining with ethidium bromide (0.5 μg/ml).
# solid tumors = conditions: cited from earlier work
compound,measurement,setting,value
"Cl.O=[N+]([O-])c1nccn1CCCNc1c2ccccc2nc2ccccc12 [NLA-1, 9-[3-(2-nitro-1-imidazolyl)propylamino]acridine hydrochloride, reference compound]",IC50 at 1 h,[1],84 µM
same,IC50,"[2]; Cricetulus griseus, V79, 1 h, V79 cells, hypoxia, 1 hour, 37° C., 50% inhibition of clonogenicity",15 µM
same,"Hypoxic selectivity (differential aerobic/hypoxic toxicity): IC50/A,1h /IC50/H,1h","[2]; V79 cells, 1 hour, 37° C.",5.5
same,cytotoxicity / selectivity relative to THNLA-1 or NLA-1,"[2]; from IC50/H, IC50/A and their ratio",about a two times more potent hypoxic cytotoxin
same,EC (SER 1.6),"[3]; 1 h, concentration yielding an SER of 1.6, hypoxic V79 cells, read-out: Hypoxic radiosensitizing potency: C1.6",8 µM
same,EC (SER 1.6),"[3]; hypoxic radiosensitization, V79 cells (tables), read-out: Intracellular concentration at C1.6: C1.6i",885 µM
same,EC (SER 1.6),"[3]; hypoxic radiosensitization, V79 cells, read-out: Intracellular concentration for an SER of 1.6: C1.6i",885 µM
same,radioprotection under aerobic conditions,[3]; aerobic,afforded radioprotection under aerobic conditions
same,EC (isoeffective to oxygen at 7.5 Gy),V79 cells [4],~11 µM
same,Partition coefficient in octanol/water: PCo/w,[5],0.07
same,logP,[5]; read-out: Partition coefficient in octanol/water: PCo/w (converted),-1.15
same,factor of decrease of Ci in the presence of NH4Cl,V79 cells [6],about 3
same,Topo I-dependent single-stranded DNA cleavage,calf thymus Topo I,observed
same,IC50,"calf thymus Topo I; Topo I inhibition (50%)-dose, Topo I-induced relaxation of supercoiled DNA",~12 µM and 12 µM
same,radiosensitization in vivo / in solid tumors (prior art),solid tumors,failure of NLA-1 as radiosensitizer in solid tumors
